Data published in US20240327764A1, “Manufacturing a Distilled Spirit Based Functional Ingredient” (priority 2022, published 2024).

How the values were obtained:
MAO B = molecular target: T1, MAO B (Homo sapiens, UniProt P27338); experiment: MAO B inhibitory activity assay (% inhibition); type: biochemical; details: terpene added at 0.5% (v/v) to Don Julio Añejo (40% ABV) versus 40% ethanol
T1 sequence (P27338 1-520): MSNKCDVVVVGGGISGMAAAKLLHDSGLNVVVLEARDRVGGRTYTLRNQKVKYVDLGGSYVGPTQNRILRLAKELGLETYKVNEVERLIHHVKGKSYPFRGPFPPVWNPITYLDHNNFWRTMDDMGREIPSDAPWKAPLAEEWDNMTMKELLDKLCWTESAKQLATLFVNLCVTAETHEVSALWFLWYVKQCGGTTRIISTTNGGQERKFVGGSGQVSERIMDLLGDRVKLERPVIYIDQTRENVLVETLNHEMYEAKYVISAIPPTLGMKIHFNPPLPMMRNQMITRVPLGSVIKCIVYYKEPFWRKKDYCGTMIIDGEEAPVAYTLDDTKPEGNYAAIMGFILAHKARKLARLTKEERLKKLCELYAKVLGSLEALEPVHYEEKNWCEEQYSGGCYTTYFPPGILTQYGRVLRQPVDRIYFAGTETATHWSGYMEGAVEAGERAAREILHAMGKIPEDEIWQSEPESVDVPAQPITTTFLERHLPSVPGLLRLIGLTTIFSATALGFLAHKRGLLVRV
Excerpt: (§1) U.S. […] The contents of this document are incorporated herein by reference, but briefly, methods that include reverse osmosis and low-pressure evaporation to provide retentates with significant concentrations of these inhibitors are described. In addition, details of assay methods for monoamine oxidase activity (and therefore inhibition thereof) and for ethanol content are provided.

MAO A = molecular target: T2, MAO A (Homo sapiens, UniProt P21397); experiment: MAO A inhibitory activity assay (% inhibition); type: biochemical; details: terpene added at 0.5% (v/v) to Don Julio Añejo (40% ABV) versus 40% ethanol
T2 sequence (P21397 1-527): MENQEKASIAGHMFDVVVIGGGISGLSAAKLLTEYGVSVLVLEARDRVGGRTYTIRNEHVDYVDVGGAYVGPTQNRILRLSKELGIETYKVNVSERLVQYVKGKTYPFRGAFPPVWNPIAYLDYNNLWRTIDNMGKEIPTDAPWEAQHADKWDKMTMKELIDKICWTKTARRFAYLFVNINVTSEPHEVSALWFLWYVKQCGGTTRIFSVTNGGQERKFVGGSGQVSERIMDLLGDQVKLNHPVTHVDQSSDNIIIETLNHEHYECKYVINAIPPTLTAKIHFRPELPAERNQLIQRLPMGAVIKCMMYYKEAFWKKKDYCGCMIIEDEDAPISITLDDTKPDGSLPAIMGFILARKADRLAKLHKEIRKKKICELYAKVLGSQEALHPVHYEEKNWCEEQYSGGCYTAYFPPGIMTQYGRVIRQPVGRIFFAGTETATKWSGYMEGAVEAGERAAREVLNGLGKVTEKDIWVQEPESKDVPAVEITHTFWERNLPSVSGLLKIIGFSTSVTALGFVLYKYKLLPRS
Excerpt: as §1

- Δ % Inhibition MAO B (DJA + terpene) − (ETOH + terpene) (MAO B): 20%
- Δ % Inhibition MAO A (DJA + terpene) − (ETOH + terpene) (MAO A): 9%
SMILES: C=C(C)[C@@H]1CCC2=CCC[C@@H](C)[C@]2(C)C1 [valencene]
